The values that follow come from article doi:10.64898/2025.12.31.697154v2, “Two phytohormones synergistically induce parasitic weeds seed germination via KAI2d receptors” (biorxiv, 2026).

What is called Kd is the free concentration of one partner at which half of the binding sites on the other are occupied at equilibrium, for simple one-to-one binding. Read a low Kd as a tighter complex. By EC50 is commonly meant the concentration that produces a half-maximal response. A high value points to a less potent agent.

The target in one experiment is T1, OmKAI2d3.
T1 construct: gene KAI2d3; soluble recombinant protein
Put plainly: isothermal titration calorimetry. It is filed as binding, Orobanche minor. To be noted: suggested allosteric site. In general terms: Isothermal titration calorimetry measures the heat released or taken up as one component is titrated into another.

A further experiment has as its system T2, OmKAI2d9–OmSMAX1D1M.
T2 construct: gene KAI2d9; KAI2d9 plus SMAX1 D1M domain only; ligand-induced complex in TR-FRET; borders and tags not given
The experiment can be described thus: TR-FRET, ligand-induced KAI2d–SMAX1 D1M interaction. It is filed as biochemical, Orobanche minor. The note with it: without rac-GR24; 300 min. On the technique in general: In TR-FRET formats the signal depends on donor and acceptor labels being close together.

Another experiment deals with T3, OmKAI2d3–OmSMAX1D1M.
T3 construct: gene KAI2d3; KAI2d3 plus SMAX1 D1M domain only; ligand-induced complex in TR-FRET; borders and tags not given
Described as above. The note with it: without rac-GR24; 300 min. In kind it is biochemical, Orobanche minor.

The test system of a further experiment is T4, OmKAI2d10–OmSMAX1D1M.
T4 construct: gene KAI2d10; KAI2d10 plus SMAX1 D1M domain only; ligand-induced complex in TR-FRET; borders and tags not given
Described as above. In kind it is biochemical, Orobanche minor. The note with it: without rac-GR24; 300 min.

Molecules are shown by their SMILES.

`CC/C=C\C[C@@H]1C(=O)C=C[C@@H]1CCCCCCCC(=O)O` [cis-OPDA]: at OmKAI2d3, the dissociation constant Kd worked out at 19.8 µM. For the same compound, the EC50 amounted to 197 µM with OmKAI2d9–OmSMAX1D1M, 217 µM with OmKAI2d3–OmSMAX1D1M and 104 µM in the experiment with OmKAI2d10–OmSMAX1D1M.
